Common to all, as to assay: Test on herbicidal activity by foliar application
What all share (type): in vivo
What all share (settings): foliar spray, 1 kg/ha, plants at 1-2 leaf stage in pots, evaluated 14 days after spraying

One assay concerns Convolvulus arvensis. As for the experimental part: (§1) Test on Herbicidal Activity by Foliar Application: Herbicidal solutions of each test compounds, which were prepared by dissolving at predetermined concentrations such a wettable powder of the test compound as that described in the above Formulation Example, were sprayed at dosages of 1 kg/ha over foliar parts of Amaranthus retroflexus, Bidens pilosa, Sinapis arvensis, Stellaria media, Solanum nigrum, Abutilon theophrasti, Convolvulus arvensis, Matricaria chamomilla, Galium aparine, Veronica hederaefolia, and Setaria viridis (each test plant is 1-2 leaf stage) which were grown in pots. 14 days latter after spraying, its herbicidal activity was evaluated in accordance with the below-described system. Herbicidal Activity 1: less than 30% inhibition 2: 30% or more-50% inhibition 3: 50% or more-70% inhibition 4: 70% or more-90% inhibition 5: 90% or more inhibition

For a further assay, the system named is Stellaria media. As for the experimental part:
as §1

A further assay deals with Solanum nigrum. As for the experimental part:
as §1

A further assay relates to Abutilon theophrasti. As for the experimental part:
as §1

Another assay deals with Galium aparine. As for the experimental part: as §1
A further assay concerns Veronica hederaefolia. As for the experimental part: as §1
The subject of another assay is Matricaria chamomilla. As for the experimental part:
as §1

Another assay deals with Amaranthus retroflexus. As for the experimental part: as §1
The test system of a further assay is Setaria viridis. As for the experimental part: as §1
In a further assay the test system is Bidens pilosa. As for the experimental part:
as §1

The test system of a further assay is Sinapis arvensis. As for the experimental part:
as §1

Eight molecules from patent publication US6610853B1, “N-(phenylsulfonyl)picolinamide derivatives, process for producing the same, and herbicide” (Kureha Kagaku Kogyo K.K., priority 2000, dated 2003) can be followed below.

Structures are written as SMILES.

For the molecule `COc1ccc(C(=O)NS(=O)(=O)c2c(Cl)cccc2Cl)nc1` [Compound I-594, N-[(2,6-Dichlorophenyl)sulfonyl]-5-methoxy-2-pyridinecarboxamide], the “Herbicidal activity, Convolvulus arvensis” value with Convolvulus arvensis is listed as 2 (30% or more-50% inhibition). For the same molecule, the “Herbicidal activity, Stellaria media” value in the assay on Stellaria media is reported as 5 (90% or more inhibition). Also, the “Herbicidal activity, Solanum nigrum” value in the assay on Solanum nigrum is 2 (30% or more-50% inhibition). The “Herbicidal activity, Abutilon theophrasti” value in the assay with Abutilon theophrasti is reported as 4 (70% or more-90% inhibition). In addition, the “Herbicidal activity, Galium aparine” value with Galium aparine is recorded as 4 (70% or more-90% inhibition). In addition, the “Herbicidal activity, Veronica hederaefolia” value with Veronica hederaefolia is on record as 4 (70% or more-90% inhibition). The “Herbicidal activity, Matricaria chamomilla” value in the assay with Matricaria chamomilla is given as 4 (70% or more-90% inhibition). In addition, the “Herbicidal activity, Amaranthus retroflexus” value in the assay with Amaranthus retroflexus is 2 (30% or more-50% inhibition). The “Herbicidal activity, Setaria viridis” value in the assay with Setaria viridis is reported as 2 (30% or more-50% inhibition). Besides, the “Herbicidal activity, Bidens pilosa” value with Bidens pilosa is 4 (70% or more-90% inhibition). Moreover, in the assay on Sinapis arvensis, the “Herbicidal activity, Sinapis arvensis” value is reported as 5 (90% or more inhibition).

For `COc1cc(Cl)nc(C(=O)NS(=O)(=O)c2ccccc2S(=O)(=O)N(C)OC)c1` [Compound I-838, 6-Chloro-4-methoxy-N-[[2-(N-methyl-N-methoxyamino)sulfonyl]phenylsulfonyl]-2-pyridinecarboxamide], in the assay on Convolvulus arvensis, the “Herbicidal activity, Convolvulus arvensis” value is 5 (90% or more inhibition). Moreover, the “Herbicidal activity, Stellaria media” value with Stellaria media is recorded as 4 (70% or more-90% inhibition). Moreover, the “Herbicidal activity, Solanum nigrum” value in the assay on Solanum nigrum is reported as 5 (90% or more inhibition). In addition, in the assay on Abutilon theophrasti, the “Herbicidal activity, Abutilon theophrasti” value was 5 (90% or more inhibition). Also, the “Herbicidal activity, Galium aparine” value in the assay on Galium aparine is 5 (90% or more inhibition). For the same molecule, the “Herbicidal activity, Veronica hederaefolia” value in the assay on Veronica hederaefolia is given as 4 (70% or more-90% inhibition). Further, the “Herbicidal activity, Matricaria chamomilla” value with Matricaria chamomilla is reported as 5 (90% or more inhibition). For the same molecule, in the assay on Amaranthus retroflexus, the “Herbicidal activity, Amaranthus retroflexus” value is 4 (70% or more-90% inhibition). Also, the “Herbicidal activity, Setaria viridis” value with Setaria viridis is recorded as 5 (90% or more inhibition). In the assay on Bidens pilosa, the “Herbicidal activity, Bidens pilosa” value was 5 (90% or more inhibition). In the assay on Sinapis arvensis, the “Herbicidal activity, Sinapis arvensis” value is on record as 5 (90% or more inhibition).

As to `COc1ccc(C(=O)NS(=O)(=O)c2ccccc2S(=O)(=O)N(C)C)nc1OC` [Compound I-889, N-[[2-(N,N-Dimethylaminosulfonyl)phenyl]-sulfonyl]-5,6-dimethoxy-2-pyridinecarboxamide], the “Herbicidal activity, Convolvulus arvensis” value with Convolvulus arvensis is reported as 4 (70% or more-90% inhibition). Besides, the “Herbicidal activity, Stellaria media” value in the assay on Stellaria media is 5 (90% or more inhibition). The “Herbicidal activity, Solanum nigrum” value in the assay on Solanum nigrum is listed as 4 (70% or more-90% inhibition). The “Herbicidal activity, Abutilon theophrasti” value with Abutilon theophrasti is 5 (90% or more inhibition). In addition, the “Herbicidal activity, Galium aparine” value with Galium aparine was 5 (90% or more inhibition). Also, the “Herbicidal activity, Veronica hederaefolia” value in the assay on Veronica hederaefolia is on record as 3 (50% or more-70% inhibition). Also, the “Herbicidal activity, Matricaria chamomilla” value in the assay on Matricaria chamomilla is on record as 5 (90% or more inhibition). Also, the “Herbicidal activity, Amaranthus retroflexus” value in the assay on Amaranthus retroflexus is 5 (90% or more inhibition). In addition, in the assay on Setaria viridis, the “Herbicidal activity, Setaria viridis” value is recorded as 4 (70% or more-90% inhibition). For the same molecule, the “Herbicidal activity, Bidens pilosa” value in the assay with Bidens pilosa is 5 (90% or more inhibition). The “Herbicidal activity, Sinapis arvensis” value in the assay with Sinapis arvensis is reported as 5 (90% or more inhibition).

In the case of `O=C(NS(=O)(=O)c1c(Cl)cccc1Cl)c1cc(Cl)cc(Cl)n1` [Compound I-557, 4,6-Dichloro-N-[(2,6-Dichlorophenyl)sulfonyl]-pyridine-2-carboxamide], in the assay on Convolvulus arvensis, the “Herbicidal activity, Convolvulus arvensis” value is listed as 5 (90% or more inhibition). Further, in the assay with Stellaria media, the “Herbicidal activity, Stellaria media” value is given as 5 (90% or more inhibition). In addition, in the assay on Solanum nigrum, the “Herbicidal activity, Solanum nigrum” value is 5 (90% or more inhibition). Besides, in the assay with Abutilon theophrasti, the “Herbicidal activity, Abutilon theophrasti” value is reported as 5 (90% or more inhibition). Further, in the assay on Galium aparine, the “Herbicidal activity, Galium aparine” value is 5 (90% or more inhibition). The “Herbicidal activity, Veronica hederaefolia” value in the assay on Veronica hederaefolia is 5 (90% or more inhibition). Further, in the assay with Matricaria chamomilla, the “Herbicidal activity, Matricaria chamomilla” value is 5 (90% or more inhibition). In addition, the “Herbicidal activity, Amaranthus retroflexus” value with Amaranthus retroflexus is 5 (90% or more inhibition). For the same molecule, in the assay with Setaria viridis, the “Herbicidal activity, Setaria viridis” value is 5 (90% or more inhibition). In the assay with Bidens pilosa, the “Herbicidal activity, Bidens pilosa” value is given as 5 (90% or more inhibition). Besides, in the assay with Sinapis arvensis, the “Herbicidal activity, Sinapis arvensis” value is 5 (90% or more inhibition).

In the case of `COc1cc(Cl)nc(C(=O)NS(=O)(=O)c2ccccc2S(=O)(=O)N(C)C)c1` [Compound I-885, 6-Chloro-4-methoxy-N-[[2-(N,N-dimethylaminosulfonyl)phenyl]sulfonyl]-2-pyridinecarboxamide], in the assay with Convolvulus arvensis, the “Herbicidal activity, Convolvulus arvensis” value is recorded as 5 (90% or more inhibition). Also, the “Herbicidal activity, Stellaria media” value in the assay on Stellaria media is on record as 5 (90% or more inhibition). In the assay on Solanum nigrum, the “Herbicidal activity, Solanum nigrum” value is recorded as 5 (90% or more inhibition). Further, the “Herbicidal activity, Abutilon theophrasti” value in the assay on Abutilon theophrasti was 5 (90% or more inhibition). The “Herbicidal activity, Galium aparine” value with Galium aparine was 5 (90% or more inhibition). Besides, the “Herbicidal activity, Veronica hederaefolia” value with Veronica hederaefolia was 4 (70% or more-90% inhibition). Also, the “Herbicidal activity, Matricaria chamomilla” value with Matricaria chamomilla is 5 (90% or more inhibition). In the assay on Amaranthus retroflexus, the “Herbicidal activity, Amaranthus retroflexus” value was 5 (90% or more inhibition). The “Herbicidal activity, Setaria viridis” value with Setaria viridis is 5 (90% or more inhibition). For the same molecule, the “Herbicidal activity, Bidens pilosa” value in the assay on Bidens pilosa is listed as 5 (90% or more inhibition). Also, the “Herbicidal activity, Sinapis arvensis” value with Sinapis arvensis is 5 (90% or more inhibition).

As to `COc1ccc(C(=O)NS(=O)(=O)c2ccccc2S(=O)(=O)N(C)C)nc1Br` [Compound I-895, N-[[2-(N,N-Dimethylaminosulfonyl)phenyl]-sulfonyl]-6-bromo-5-methoxy-2-pyridinecarboxamide], the “Herbicidal activity, Convolvulus arvensis” value in the assay on Convolvulus arvensis is reported as 5 (90% or more inhibition). The “Herbicidal activity, Stellaria media” value in the assay with Stellaria media was 5 (90% or more inhibition). In the assay on Solanum nigrum, the “Herbicidal activity, Solanum nigrum” value is on record as 5 (90% or more inhibition). Also, the “Herbicidal activity, Abutilon theophrasti” value in the assay with Abutilon theophrasti is listed as 5 (90% or more inhibition). Further, the “Herbicidal activity, Galium aparine” value in the assay on Galium aparine is reported as 5 (90% or more inhibition). In addition, the “Herbicidal activity, Veronica hederaefolia” value with Veronica hederaefolia is 5 (90% or more inhibition). Also, in the assay with Matricaria chamomilla, the “Herbicidal activity, Matricaria chamomilla” value is reported as 5 (90% or more inhibition). For the same molecule, the “Herbicidal activity, Amaranthus retroflexus” value with Amaranthus retroflexus is listed as 5 (90% or more inhibition). Further, in the assay on Setaria viridis, the “Herbicidal activity, Setaria viridis” value is 5 (90% or more inhibition). For the same molecule, the “Herbicidal activity, Bidens pilosa” value in the assay with Bidens pilosa was 5 (90% or more inhibition). Moreover, the “Herbicidal activity, Sinapis arvensis” value in the assay on Sinapis arvensis is given as 5 (90% or more inhibition).

Turning to `COc1cc(Cl)cc(C(=O)NS(=O)(=O)c2c(Cl)cccc2Cl)n1` [Compound I-581, N-[(2,6-Dichlorophenyl)sulfonyl]-4-chloro-6-methoxy-2-pyridinecarboxamide], in the assay on Convolvulus arvensis, the “Herbicidal activity, Convolvulus arvensis” value is on record as 4 (70% or more-90% inhibition). Besides, the “Herbicidal activity, Stellaria media” value with Stellaria media is listed as 5 (90% or more inhibition). Further, the “Herbicidal activity, Solanum nigrum” value in the assay on Solanum nigrum was 5 (90% or more inhibition). The “Herbicidal activity, Abutilon theophrasti” value in the assay with Abutilon theophrasti is 4 (70% or more-90% inhibition). Moreover, the “Herbicidal activity, Galium aparine” value with Galium aparine is 5 (90% or more inhibition). Besides, in the assay with Veronica hederaefolia, the “Herbicidal activity, Veronica hederaefolia” value is recorded as 4 (70% or more-90% inhibition). Further, the “Herbicidal activity, Matricaria chamomilla” value in the assay with Matricaria chamomilla is reported as 5 (90% or more inhibition). For the same molecule, the “Herbicidal activity, Amaranthus retroflexus” value in the assay with Amaranthus retroflexus was 5 (90% or more inhibition). The “Herbicidal activity, Setaria viridis” value in the assay with Setaria viridis is 4 (70% or more-90% inhibition). For the same molecule, the “Herbicidal activity, Bidens pilosa” value in the assay on Bidens pilosa is reported as 5 (90% or more inhibition). Also, the “Herbicidal activity, Sinapis arvensis” value in the assay with Sinapis arvensis is listed as 5 (90% or more inhibition).

On to `O=C(NS(=O)(=O)c1ccccc1OC(F)(F)F)c1cccc(Cl)n1` [Compound I-771, N-[[2-Trifluoromethoxyphenyl]sulfonyl]-6-chloro-2-pyridinecarboxamide], for which the “Herbicidal activity, Convolvulus arvensis” value with Convolvulus arvensis was 4 (70% or more-90% inhibition). Further, the “Herbicidal activity, Stellaria media” value with Stellaria media is given as 5 (90% or more inhibition). Also, the “Herbicidal activity, Solanum nigrum” value with Solanum nigrum was 5 (90% or more inhibition). The “Herbicidal activity, Abutilon theophrasti” value in the assay on Abutilon theophrasti is on record as 5 (90% or more inhibition). For the same molecule, in the assay on Galium aparine, the “Herbicidal activity, Galium aparine” value was 5 (90% or more inhibition). In addition, the “Herbicidal activity, Veronica hederaefolia” value with Veronica hederaefolia was 5 (90% or more inhibition). In the assay with Matricaria chamomilla, the “Herbicidal activity, Matricaria chamomilla” value was 5 (90% or more inhibition). In addition, the “Herbicidal activity, Amaranthus retroflexus” value in the assay with Amaranthus retroflexus is recorded as 5 (90% or more inhibition). The “Herbicidal activity, Setaria viridis” value in the assay with Setaria viridis is listed as 1 (less than 30% inhibition). For the same molecule, in the assay with Bidens pilosa, the “Herbicidal activity, Bidens pilosa” value is given as 5 (90% or more inhibition). Besides, the “Herbicidal activity, Sinapis arvensis” value in the assay with Sinapis arvensis was 5 (90% or more inhibition).
